How the values were obtained:
Format in all cases: cell-based
[1] = tested on: MDA-MB-231 cells; assay: PARP cleavage assay (Western blotting), MDA-MB-231; conditions: 6 hours
Description: Compound 1a had no effect under the same conditions (FIG. 1A). […] Compound 1a, 28a, 47a, 48a, 73a, 39a, 70a, 103a, 89a and 88a had no effect under the same conditions (FIG. 3B-C).

[2] = tested on: mTOR markers p-S6 and p-4EBP1; assay: mTOR inhibition: expression of mTOR markers; conditions: MDA-MB-231 cells, 1 μM, 6 hours
[3] = tested on: HCT116 cancer cells; assay: Cell viability (MTT) assay, HCT116; conditions: Homo sapiens, HCT-116; inhibiting the growth of HCT116 cancer cells, cell viability assay (Table 5)
Experimental: (§1) Cell viability was analyzed by using a colorimetric 3-(4,5-dimethylthiazol-[…]2-yl)-2,5-diphenyletetrazolium Bromide (MTT) assay that determines mitochondrial dehydrogenase activities in the living cells with a colorimetric method. Cells treated with test compounds were incubated with MTT and their effect on the viability of the cells was assayed by the ability of treated cells to reduce the yellow tetrazolium dye MTT to its insoluble formazan, which has a purple color. […]

[4] = tested on: MDA-MB-231 cancer cells; assay: Cell viability (MTT) assay, MDA-MB-231; conditions: Homo sapiens; inhibiting the growth of MDA-MB-231 cancer cells, cell viability assay (Table 6)
Experimental: as §1

Fc1ccc2[nH]cc([C+](c3ccc(C(F)(F)F)cc3)c3c[nH]c4ccc(F)cc34)c2c1 [Compound 10, Bis(5-fluoro-1H-indol-3-yl)(4-(trifluoromethyl)phenyl)methylium methanesulfonate]
PARP cleavage ([1]; 1 μM): effectively induce PARP cleavage
expression levels of mTOR markers p-S6 and p-4EBP1 [2]: reduced the expression levels

Cn1cc([C+](c2ccc(C(F)(F)F)cc2)c2cn(C)c3ccccc23)c2ccccc21 [Compound 11, Bis(1-methyl-1H-indol-3-yl)(4-(trifluoromethyl)phenyl)methylium methanesulfonate]
PARP cleavage ([1]; 1 μM): effectively induce PARP cleavage
expression levels of mTOR markers p-S6 and p-4EBP1 [2]: reduced the expression levels

Cc1ccc2[nH]cc([C+](c3ccc(C(F)(F)F)cc3)c3c[nH]c4ccc(C)cc34)c2c1 [Compound 15, Bis(5-methyl-1H-indol-3-yl)(4-(trifluoromethyl)phenyl)methylium methanesulfonate]
PARP cleavage ([1]; 1 μM): effectively induce PARP cleavage
expression levels of mTOR markers p-S6 and p-4EBP1 [2]: reduced the expression levels

Cc1ccc2c([C+](c3ccc(C(F)(F)F)cc3)c3c[nH]c4cc(C)ccc34)c[nH]c2c1 [Compound 18, Bis(6-methyl-1H-indol-3-yl)(4-(trifluoromethyl)phenyl)methylium chloride]
PARP cleavage ([1]; 1 μM): effectively induce PARP cleavage
expression levels of mTOR markers p-S6 and p-4EBP1 [2]: reduced the expression levels

Fc1ccc2c([C+](c3ccc(C(F)(F)F)cc3)c3c[nH]c4cc(F)ccc34)c[nH]c2c1 [Compound 21, Bis(6-fluoro-1H-indol-3-yl)(4-(trifluoromethyl)phenyl)methylium methanesulfonate]
PARP cleavage ([1]; 1 μM): effectively induce PARP cleavage
expression levels of mTOR markers p-S6 and p-4EBP1 [2]: reduced the expression levels

Cl.Fc1ccc2c([C+](c3ccc(C(F)(F)F)cc3)c3c[nH]c4cc(F)ccc34)c[nH]c2c1 [Compound 22, Bis(6-fluoro-1H-indol-3-yl)(4-(trifluoromethyl)phenyl)methylium chloride]
PARP cleavage ([1]; 1 μM): effectively induce PARP cleavage
expression levels of mTOR markers p-S6 and p-4EBP1 [2]: reduced the expression levels

FC(F)(F)c1ccc([C+](c2c[nH]c3cc(Cl)ccc23)c2c[nH]c3cc(Cl)ccc23)cc1 [Compound 24, Bis(6-chloro-1H-indol-3-yl)(4-(trifluoromethyl)phenyl)methylium methanesulfonate]
PARP cleavage ([1]; 1 μM): effectively induce PARP cleavage
expression levels of mTOR markers p-S6 and p-4EBP1 [2]: reduced the expression levels

FC(F)(F)Oc1ccc([C+](c2c[nH]c3ccccc23)c2c[nH]c3ccccc23)cc1.[Cl-] [Compound 39, Bis(1H-indol-3-yl)(4-(trifluoromethoxy)phenyl)methylium chloride]
IC50 [3]: 500 to 5000 nM
IC50 [4]: 500 to 5000 nM
PARP cleavage ([1]; 0.5 μM): effectively induced PARP cleavage
PARP cleavage ([1]; 1 μM): effectively induce PARP cleavage
expression levels of mTOR markers p-S6 and p-4EBP1 [2]: reduced the expression levels

Fc1cccc2[nH]cc([C+](c3ccc(C(F)(F)F)cc3)c3c[nH]c4cccc(F)c34)c12.[Cl-] [Compound 43, Bis(4-fluoro-1H-indol-3-yl)(4-(trifluoromethyl)phenyl)methylium chloride]
PARP cleavage ([1]; 1 μM): effectively induce PARP cleavage
expression levels of mTOR markers p-S6 and p-4EBP1 [2]: reduced the expression levels

Oc1ccc2[nH]cc([C+](c3ccc(C(F)(F)F)cc3)c3c[nH]c4ccc(O)cc34)c2c1.[Cl-] [Compound 46, Bis(5-hydroxy-1H-indol-3-yl)(4-(trifluoromethyl)phenyl)methylium chloride]
PARP cleavage ([1]; 1 μM): effectively induce PARP cleavage
expression levels of mTOR markers p-S6 and p-4EBP1 [2]: reduced the expression levels

CCn1cc([C+](c2ccc(C(F)(F)F)cc2)c2c[nH]c3ccccc23)c2ccccc21.[Cl-] [Compound 47, (1-Ethyl-1H-indol-3-yl)(1H-indol-3-yl)(4-(trifluoromethyl)phenyl)methylium chloride]
IC50 [3]: < 500 nM
IC50 [4]: < 500 nM
PARP cleavage ([1]; 0.5 μM): effectively induced PARP cleavage

CCCn1cc([C+](c2ccc(C(F)(F)F)cc2)c2c[nH]c3ccccc23)c2ccccc21.[Cl-] [Compound 48, (1-Propyl-1H-indol-3-yl)(1H-indol-3-yl)(4-(trifluoromethyl)phenyl)methylium chloride]
IC50 [3]: < 500 nM
IC50 [4]: < 500 nM
PARP cleavage ([1]; 0.5 μM): effectively induced PARP cleavage
PARP cleavage ([1]; 1 μM): effectively induce PARP cleavage
expression levels of mTOR markers p-S6 and p-4EBP1 [2]: reduced the expression levels

CCCCn1cc([C+](c2ccc(C(F)(F)F)cc2)c2c[nH]c3ccccc23)c2ccccc21.[Cl-] [Compound 49, (1-Butyl-1H-indol-3-yl)(1H-indol-3-yl)(4-(trifluoromethyl)phenyl)methylium chloride]
PARP cleavage ([1]; 1 μM): effectively induce PARP cleavage
expression levels of mTOR markers p-S6 and p-4EBP1 [2]: reduced the expression levels

Cc1ccc2c([C+](c3ccc(C(F)(F)F)cc3)c3c[nH]c4ccccc34)c[nH]c2c1.[Cl-] [Compound 54, (6-Methyl-1H-indol-3-yl)(1H-indol-3-yl)(4-(trifluoromethyl)phenyl)methylium chloride]
PARP cleavage ([1]; 1 μM): effectively induce PARP cleavage
expression levels of mTOR markers p-S6 and p-4EBP1 [2]: reduced the expression levels

Cc1cccc2c([C+](c3ccc(C(F)(F)F)cc3)c3c[nH]c4ccccc34)c[nH]c12.[Cl-] [Compound 55, (7-Methyl-1H-indol-3-yl)(1H-indol-3-yl)(4-(trifluoromethyl)phenyl)methylium chloride]
PARP cleavage ([1]; 1 μM): effectively induce PARP cleavage
expression levels of mTOR markers p-S6 and p-4EBP1 [2]: reduced the expression levels

Cc1ccc2[nH]cc([C+](c3ccc(C(F)(F)F)cc3)c3c[nH]c4ccccc34)c2c1.[Cl-] [Compound 57, (5-Methyl-1H-indol-3-yl)(1H-indol-3-yl)(4-(trifluoromethyl)phenyl)methylium chloride]
PARP cleavage ([1]; 1 μM): effectively induce PARP cleavage
expression levels of mTOR markers p-S6 and p-4EBP1 [2]: reduced the expression levels

Fc1cccc2c([C+](c3ccc(C(F)(F)F)cc3)c3c[nH]c4c(F)cccc34)c[nH]c12.[Cl-] [Compound 62, Bis(7-fluoro-1H-indol-3-yl)(4-(trifluoromethyl)phenyl)methylium chloride]
PARP cleavage ([1]; 1 μM): effectively induce PARP cleavage
expression levels of mTOR markers p-S6 and p-4EBP1 [2]: reduced the expression levels

FC(F)(F)c1ccc([C+](c2c[nH]c3cc(Cl)ccc23)c2c[nH]c3cc(Cl)ccc23)cc1.[Cl-] [Compound 67, Bis(6-chloro-1H-indol-3-yl)(4-(trifluoromethyl)phenyl)methylium chloride]
PARP cleavage ([1]; 1 μM): effectively induce PARP cleavage
expression levels of mTOR markers p-S6 and p-4EBP1 [2]: reduced the expression levels

Fc1ccc2c([C+](c3ccc(C(F)(F)F)cc3)c3c[nH]c4ccccc34)c[nH]c2c1.[Cl-] [Compound 70, (6-Fluoro-1H-indol-3-yl)(1H-indol-3-yl)(4-(trifluoromethyl)phenyl)methylium chloride]
IC50 [3]: < 500 nM
IC50 [4]: < 500 nM
PARP cleavage ([1]; 0.5 μM): effectively induced PARP cleavage

Fc1cccc2c([C+](c3ccc(C(F)(F)F)cc3)c3c[nH]c4ccccc34)c[nH]c12.[Cl-] [Compound 71, (7-Fluoro-1H-indol-3-yl)(1H-indol-3-yl)(4-(trifluoromethyl)phenyl)methylium chloride]
IC50 [3]: < 500 nM
IC50 [4]: < 500 nM
PARP cleavage ([1]; 1 μM): effectively induce PARP cleavage
expression levels of mTOR markers p-S6 and p-4EBP1 [2]: reduced the expression levels

Fc1cccc2[nH]cc([C+](c3ccc(C(F)(F)F)cc3)c3c[nH]c4ccccc34)c12.[Cl-] [Compound 72, (4-Fluoro-1H-indol-3-yl)(1H-indol-3-yl)(4-(trifluoromethyl)phenyl)methylium chloride]
PARP cleavage ([1]; 1 μM): effectively induce PARP cleavage
expression levels of mTOR markers p-S6 and p-4EBP1 [2]: reduced the expression levels

FC(F)(F)c1ccc([C+](c2cn(-c3ccccc3)c3ccccc23)c2cn(-c3ccccc3)c3ccccc23)cc1.[Cl-] [Compound 74, Bis(1-phenyl-1H-indol-3-yl)(4-(trifluoromethyl)phenyl)methylium chloride]
PARP cleavage ([1]; 1 μM): effectively induce PARP cleavage
expression levels of mTOR markers p-S6 and p-4EBP1 [2]: reduced the expression levels

Cn1cc([C+](c2ccc(C(F)(F)F)cc2)c2c[nH]c3ccccc23)c2ccc(F)cc21.[Cl-] [Compound 88, (6-Fluoro-1-methyl-1H-indol-3-yl)(1H-indol-3-yl)(4-(trifluoromethyl)phenyl)-methylium chloride]
IC50 [3]: < 500 nM
IC50 [4]: < 500 nM
PARP cleavage ([1]; 0.5 μM): effectively induced PARP cleavage

Cn1cc([C+](c2ccc(C(F)(F)F)cc2)c2c[nH]c3c(F)cccc23)c2ccccc21.[Cl-] [Compound 89, (7-Fluoro-1H-indol-3-yl)(1-methyl-1H-indol-3-yl)(4-(trifluoromethyl)phenyl)-methylium chloride]
IC50 [3]: < 500 nM
IC50 [4]: < 500 nM
PARP cleavage ([1]; 0.5 μM): effectively induced PARP cleavage

Fc1cc([C+](c2c[nH]c3ccccc23)c2c[nH]c3ccccc23)ccc1C(F)(F)F.[Cl-] [Compound 103, (3-Fluoro-4-(trifluoromethyl)phenyl)di(1H-indol-3-yl)methylium chloride]
IC50 [3]: < 500 nM
IC50 [4]: < 500 nM
PARP cleavage ([1]; 0.5 μM): effectively induced PARP cleavage
